Legend:
Type in all cases: cell-based
[1] = test system: Sh-IR; details: isomer that blocks Sh-IR
[2] = test system: voltage-gated Ca2+ channels expressed in GH3 cells; test: Photosensitization of voltage-gated Ca2+ channels expressed in GH3 cells
[3] = test system: voltage-gated Na+ channels expressed in GH3 cells; test: Photosensitization of voltage-gated Na+ channels expressed in GH3 cells
[4] = test system: endogenous K+ channels in dissociated hippocampal neurons; details: 20 μM extracellular treatment, Iss at +40 mV, n = 10

Compound	Active Isomer [1]	photosensitization of voltage-gated Ca2+ channels [2]	photosensitization of voltage-gated Na+ channels [3]	% of Iss blocked (380 vs 500 nm) [4]
C=CC(=O)Nc1ccc(N=Nc2ccc(NC(=O)C[N+](CC)(CC)CC)cc2)cc1 [Compound 1]	trans	–	–	–
CC[N+](CC)(CC)CC(=O)Nc1ccc(/N=N/c2ccc(NC(=O)c3ccccc3)cc2)cc1 [Compound 7, Benzoyl-Azo-QA]	trans	did not photosensitize	did not photosensitize	35.5% ± 4.7
Propyl-Azo-QA [Compound 10]	preferentially blocks in the cis form	–	–	–

— PMC4040390 (Angewandte Chemie (International ed. in English), 2009)
